Experimental data as given in US20210060016A1, “ANTICANCER AGENT” (JAPANESE FOUNDATION FOR CANCER RESEARCH, priority 2017, published 2021).

What was measured:
[1] = tested on: human colorectal cancer cell line COLO-320DM; test: Cell proliferation inhibitory activity test (Celltiter-Glo); type: cell-based; conditions: 96 hours, read-out: COLO-320DM (cell proliferation inhibitory activity), G150 rating
Description: The cell proliferation inhibitory activity of the compound, which had been prepared in each of Compound Examples, against the human colorectal cancer cell line COLO-320DM was evaluated by Celltiter-Glo Luminescent Cell Viability Assay (Promega Corporation; G7573). COLO-320DM cells were cultured in RPMI-1640 medium containing 2 mM glutamine (Wako Pure Chemical Industries, Ltd; 189-02025) supplemented with 10% fetal bovine serum. The cultured cells were washed with PBS, and then dissociated with trypsin/EDTA, and a cell solution with 3×10^4 cells/mL was prepared.
Subsequently, the cell solution was seeded in a 96-well microplate (Thermo/Nunc Company; 136101) in an amount of 70 μL per well, and cultured overnight under the condition of 37° C. and 5% COz. The next day, a test compound solution obtained by diluting the test compound (DMSO solution) with a cell culture medium (final concentration of DMSO was 1%) was added in an amount of 10 μL per well, and the mixture was reacted under the condition of 37° C. and 5% CO2 for 96 hours (a 1% DMSO solution was used as a control). Thereafter, a Celltiter-Glo Luminescent Cell Viability Assay reagent was added (Promega Corporation; G7573) in an amount of 80 μL per well, the mixture was stirred with a shaker for 2 minutes while light was blocked with an aluminum foil, and the mixture was incubated at room temperature for 10 minutes.
Thereafter, a luminescence signal was measured with a luminometer (Biotech Company; Synergy). The ratio of cell proliferation in each compound addition group to cell proliferation in a control group containing no test compound solution, where cell proliferation in the control group is 100%, was determined, and the value of a compound concentration necessary for suppressing the amount of residual cells to 50% of that in the control (G150) was calculated as the cell proliferation inhibitory activity. For the COLO-320DM (cell proliferation inhibitory activity against COLO-320DM) of each test compound as measured through the above-mentioned method, a test compound having a G150 value of less than 1 μM was rated “A”, a test compound having a G150 value of 1 μM or more and less than 10 μM was rated “B”, a test compound having a G150 value of 10 μM or more was rated “C”, and an unevaluated test compound was designated as “NT”.

tankyrase 2 = target: T1, tankyrase 2 (Homo sapiens, UniProt Q9H2K2); test: Tankyrase inhibitory activity test (ELISA, auto-poly(ADP-ribosyl)ation), TNKS2; type: biochemical; conditions: Flag-tagged tankyrase 2 (ANK5+SAM+PARP), read-out: TNKS2 (inhibitory activity against tankyrase 2), IC50 rating
T1 construct: tankyrase 2 (613-1, 116aa, ANK5+SAM+PARP); made in house; host or cells: cell-free protein expression system
T1 sequence (Q9H2K2 613-1166): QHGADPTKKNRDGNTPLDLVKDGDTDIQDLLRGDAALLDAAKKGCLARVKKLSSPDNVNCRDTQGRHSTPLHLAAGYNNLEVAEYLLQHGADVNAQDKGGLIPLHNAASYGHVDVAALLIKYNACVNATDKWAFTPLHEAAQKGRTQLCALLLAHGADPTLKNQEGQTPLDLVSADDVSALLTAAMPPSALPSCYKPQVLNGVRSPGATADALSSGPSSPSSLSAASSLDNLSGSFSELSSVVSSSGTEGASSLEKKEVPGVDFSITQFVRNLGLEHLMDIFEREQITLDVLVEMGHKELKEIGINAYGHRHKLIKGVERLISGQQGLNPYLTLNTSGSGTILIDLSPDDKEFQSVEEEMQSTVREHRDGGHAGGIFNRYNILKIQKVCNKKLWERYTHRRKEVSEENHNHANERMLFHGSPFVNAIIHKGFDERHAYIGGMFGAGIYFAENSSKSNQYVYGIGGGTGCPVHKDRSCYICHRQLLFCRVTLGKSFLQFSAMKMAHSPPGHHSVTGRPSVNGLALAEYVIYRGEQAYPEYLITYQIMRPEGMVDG
Description: (§1) The enzymatic activity of tankyrase 1 and the enzymatic activity of tankyrase 2 were measured by the ELISA method based on assessment of auto-poly(ADP-ribosyl)ation to evaluate the tankyrase inhibitory activity of the compound prepared in each of Compound Examples (test compound) (inhibitory activity against tankyrase 1 (TNKS1) and inhibitory activity against tankyrase 2 (TNKS2)). First, Flag-tagged tankyrase 1 (1,024-1, 327aa, SAM+PARP) and tankyrase 2 (613-1, 116aa, ANK5+SAM+PARP) were synthesized with a cell-free protein expression system, and diluted with a Tris buffer solution (50 mM Tris-HCl (pH 8.0), 150 mM NaCl, 10% glycerol). 50 μL of the diluted tankyrase 1 or tankyrase 2 was added to a plate with an anti-FLAG M2 monoclonal antibody immobilized thereon (Anti-FLAG High-Sensitivity M2-Coated Plate) (Sigma-Aldrich), and the mixture was left to stand overnight at 4° C. Thereafter, the plate was washed four times with a PBS (PBST) buffer containing 0.1% TritonX-100.
(§2) Subsequently, the test compound diluted with an assay buffer (50 mM Tris-HCl (pH 8.0), 4 mM MgCl2, 0.2 mM DTT) (DMSO was used as a control) was added to each well of the plate, and the mixture was left to stand at room temperature for 10 minutes. Thereafter, a biotin-labeled NAD solution (225 μM NAD, 25 μM 6-Biotin-17-NAD (Travigen, Inc.)) was added and mixed as a donor substrate, and the mixture was reacted at 30° C. for 45 minutes. To blank wells was added distilled water instead of the biotin-labeled NAD solution. After the reaction, the plate was washed with a PBST buffer four times. Thereafter, HRP (horseradish peroxidase)-labeled streptavidin (Travigen, Inc.) was diluted with a PBS buffer by 1,000 times, and added to each well, and the mixture was reacted at room temperature for 20 minutes. The plate was washed with a PBST buffer four times, a chemiluminescent substrate solution TACS-Sapphire (Travigen, Inc.) was then added to each well, the mixture was reacted at room temperature for 20 minutes, and thechemiluminescence intensity was measured using a chemiluminescence measuring apparatus.
(§3) The residual enzymatic activity in the presence of the test compound was determined from the following expression. On the basis of the residual enzymatic activity at each of multiple concentrations of the test compound, the enzyme inhibitory activity was calculated in terms of a 50%-inhibition concentration (IC50 value) using data analysis software Origin (LightStone Corp.). Residual activity (%)={(chemiluminescence intensity with test compound added)−(chemiluminescence intensity of blank)}/{(chemiluminescence intensity of control)−(chemiluminescence intensity of blank))

tankyrase 1 = target: T2, tankyrase 1 (Homo sapiens, UniProt O95271); test: Tankyrase inhibitory activity test (ELISA, auto-poly(ADP-ribosyl)ation), TNKS1; type: biochemical; conditions: Flag-tagged tankyrase 1 (SAM+PARP), read-out: TNKS1 (inhibitory activity against tankyrase 1), IC50 rating
T2 construct: tankyrase 1 (1,024-1, 327aa, SAM+PARP); made in house; host or cells: cell-free protein expression system
T2 sequence (O95271 1024-1327): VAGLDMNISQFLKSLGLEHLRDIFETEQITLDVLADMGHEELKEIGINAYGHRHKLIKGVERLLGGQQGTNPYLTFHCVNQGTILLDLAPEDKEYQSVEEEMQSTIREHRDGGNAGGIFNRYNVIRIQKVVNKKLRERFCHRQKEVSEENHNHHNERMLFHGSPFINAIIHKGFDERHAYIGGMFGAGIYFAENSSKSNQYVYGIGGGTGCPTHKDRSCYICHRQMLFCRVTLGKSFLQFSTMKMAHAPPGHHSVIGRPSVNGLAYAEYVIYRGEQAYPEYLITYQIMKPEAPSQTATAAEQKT
Description: as §1, §2, §3

| SMILES | IC50 [1] | IC50 (tankyrase 2) | IC50 (tankyrase 1) |
| --- | --- | --- | --- |
| COc1ccc(-c2c[nH]nc2C2NC(=O)c3cccc(C)c3N2)cc1 (stereo not drawn) [Compound Example 113, 2-[4-(4-Methoxyphenyl)-1H-pyrazol-3-yl]-8-methyl-2,3-dihydro-1H-quinazolin-4-one] | ≥ 10000 nM | 20 to 200 nM | < 20 nM |
| CCOc1ccc(-c2n[nH]nc2[C@H]2NC(=O)c3cccc(C)c3N2)cc1 [Compound Example 101, (2R)-2-[5-(4-Ethoxyphenyl)-2H-1,2,3-triazol-4-yl]-8-methyl-2,3-dihydro-1H-quinazolin-4-one] | < 1000 nM | < 20 nM | < 20 nM |
